Data from patent US20240408216A1, “PROTEIN INHIBITOR OR DEGRADING AGENT, PHARMACEUTICAL COMPOSITION CONTAINING SAME AND PHARMACEUTICAL USE” (JING MEDICINE TECHNOLOGY (SHANGHAI) LTD., priority 2021, published 2024).
Read-outs that look alike come from different tables or passages of the source.

Tests used:
[1] = test system: BaF3 (EGFR L858R/T790M/C797S); assay: Cell proliferation IC50 assay (Cell Titer GLO), BaF3 LTC cells; type: cell-based; conditions: Mus musculus, Ba/F3 EGFR, Table 6, 72 h
Procedure: (§1) IC50 of compounds in the present invention was determined by Cell Titer GLO reagent from Promega. The procedures are as follows:
(§2) Tumor cells were cultured in specified medium in an incubator at 37° C. and 5% CO2. The cells were passaged periodically. Cells at the logarithmic growth phase were collected for plating at a density of 2000-4000 cells/well. The next day, the compounds of the present invention were serially diluted and added to the cells, with DMSO being the negative control and the culture media without cells being the blank control. The plate was incubated in the incubator for 72 h. The cell viability assay was performed by adding the detection reagents to the cell culture media according to Cell Titer GLO reagent instructions and detecting luminescent signals on an EnVision microplate reader (PerkinElmer).
(§3) Inhibition of cell growth by the compounds of the present invention was plotted by Prism Graphpad software for statistically calculating the IC50 of the compound of the present invention.

[2] = target: T1, BaF3 (EGFR Del19/C797S) (Homo sapiens, UniProt P00533, C797S, cells depend on it, form not given); assay: Cell proliferation IC50 assay (Cell Titer GLO), BaF3 DC cells; type: cell-based, mouse; conditions: Table 6, 72 h
T1 construct: BaF3 (EGFR Del19/C797S)|DC|RPMI1640 + 10% FBS
Procedure: as §1, §2, §3

[3] = test system: BaF3 (EGFR WT); assay: Cell proliferation IC50 assay (Cell Titer GLO), BaF3 WT cells; type: cell-based; conditions: Mus musculus, Ba/F3 EGFR, Table 6, 10 ng/ml EGF, 72 h
Procedure: as §1, §2, §3

[4] = test system: A431; assay: Cell proliferation IC50 assay (Cell Titer GLO), A431 cells; type: cell-based; conditions: Homo sapiens
Procedure: as §1, §2, §3

[5] = A-431, Table 6, A431, 72 h, read-out: A431 IC50

T1 sequence (P00533 with tags, fused parts or gaps DEL746-750/C797S, form open): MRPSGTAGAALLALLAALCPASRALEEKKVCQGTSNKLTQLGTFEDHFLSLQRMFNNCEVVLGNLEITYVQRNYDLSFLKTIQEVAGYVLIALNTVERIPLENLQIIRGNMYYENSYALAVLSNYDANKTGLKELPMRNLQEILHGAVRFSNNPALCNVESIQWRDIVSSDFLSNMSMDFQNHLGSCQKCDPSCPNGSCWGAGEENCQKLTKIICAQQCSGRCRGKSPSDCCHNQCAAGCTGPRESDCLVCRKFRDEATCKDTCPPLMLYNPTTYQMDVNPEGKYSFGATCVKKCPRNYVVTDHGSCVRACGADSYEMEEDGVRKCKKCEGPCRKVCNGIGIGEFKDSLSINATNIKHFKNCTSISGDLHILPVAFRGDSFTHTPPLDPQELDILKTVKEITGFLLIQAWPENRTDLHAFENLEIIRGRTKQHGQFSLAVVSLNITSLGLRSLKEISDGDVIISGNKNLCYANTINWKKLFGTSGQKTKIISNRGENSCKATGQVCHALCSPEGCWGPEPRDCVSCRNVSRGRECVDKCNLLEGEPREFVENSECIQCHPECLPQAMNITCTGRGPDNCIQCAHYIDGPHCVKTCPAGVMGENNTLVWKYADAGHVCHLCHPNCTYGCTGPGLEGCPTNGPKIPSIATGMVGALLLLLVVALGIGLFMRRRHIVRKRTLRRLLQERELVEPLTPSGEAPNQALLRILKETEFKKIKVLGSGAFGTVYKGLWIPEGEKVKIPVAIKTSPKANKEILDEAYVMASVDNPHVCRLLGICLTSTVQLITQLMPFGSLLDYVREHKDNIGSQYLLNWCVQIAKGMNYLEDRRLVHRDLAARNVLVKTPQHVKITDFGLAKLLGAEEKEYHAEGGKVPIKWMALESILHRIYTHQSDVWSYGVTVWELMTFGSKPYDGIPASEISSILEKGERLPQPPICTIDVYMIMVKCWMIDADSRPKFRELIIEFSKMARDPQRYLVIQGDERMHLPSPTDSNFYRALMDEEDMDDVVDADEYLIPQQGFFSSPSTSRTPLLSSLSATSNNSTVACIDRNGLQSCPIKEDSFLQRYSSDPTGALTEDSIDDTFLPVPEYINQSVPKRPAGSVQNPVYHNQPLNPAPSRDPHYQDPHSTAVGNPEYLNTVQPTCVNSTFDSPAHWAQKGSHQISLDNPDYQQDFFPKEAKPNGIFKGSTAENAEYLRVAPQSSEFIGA

Row | SMILES | IC50 [1] [µM] | IC50 [2] [µM] | IC50 [3] [µM] | IC50 [4, 5] [nM] | IC50 ([4]; A-431, 72 h, read-out: A431 IC50 (nM)) [nM]
1 | CCc1cc(Nc2ncc(-n3ccnn3)c(Nc3ccccc3P(C)(C)=O)n2)c(OC)cc1N1CCC(N2CCN(CCOc3ccc4c(c3)CN(C3CCC(=O)NC3=O)C4=O)CC2)CC1 (stereo not shown) [Example E220] | > 4 | 0.004 | > 4 | > 4000 | 
2 | CCc1cc(Nc2ncc(Cl)c(Nc3ccccc3P(C)(C)=O)n2)c(OC)cc1N1CCC(N2CCN(C3(/C=C\c4cccc5c4CN(C4CCC(=O)NC4=O)C5=O)CC3)CC2)CC1 (stereo not shown) [Example E85] | 0.053 | 0.0137 | 1.88 | 1370 | 
3 | CCc1cc(Nc2ncc(Cl)c(Nc3ccccc3P(C)(C)=O)n2)c(OC)cc1N1CCC2(CC1)CC(N(C)CCCC#Cc1cccc3c1CN(C1CCC(=O)NC1=O)C3=O)C2 (stereo not shown) [Example E60] | 0.0771 | 0.0397 | > 4 | > 4000 | 
4 | COc1cc(N2CCC(N3CCN(CCCCOc4cccc5c4CN(C4CCC(=O)NC4=O)C5=O)CC3)CC2)c(CO)cc1Nc1ncc(Cl)c(Nc2ccccc2P(C)(C)=O)n1 (stereo not shown) [Example E127] | 0.0796 | 0.0087 | 0.595 | 1270 | 
5 | COc1cc(N2CCC(N3CCN(CCC#Cc4cccc5c4CN(C4CCC(=O)NC4=O)C5=O)CC3)CC2)c(C#N)cc1Nc1ncc(Cl)c(Nc2ccccc2P(C)(C)=O)n1 (stereo not shown) [Example E52] | 0.0417 | 0.0152 | > 4 | 1040 | 
6 | CCc1cc(Nc2ncc(-c3cnn(C)c3)c(Nc3ccccc3P(C)(C)=O)n2)c(OC)cc1N1CCC(N2CCN(Cc3ccc4c(c3)CN(C3CCC(=O)NC3=O)C4=O)CC2)CC1 (stereo not shown) [Example E217] | > 4 | 0.0009 | 0.623 | > 4000 | 
7 | CCc1cc(Nc2ncc(Cl)c(Nc3ccccc3P(C)(C)=O)n2)c(OC)cc1N1CCC(N2CCN(CCC#Cc3c(F)ccc4c3CN(C3CCC(=O)NC3=O)C4=O)CC2)CC1 (stereo not shown) [Example E54] | 0.0514 | 0.0203 | 0.353 | 1180 | 
8 | CCc1cc(Nc2ncc(-c3nnc(C)o3)c(Nc3ccccc3P(C)(C)=O)n2)c(OC)cc1N1CCC(N2CCN(CCOc3cccc4c3CN(C3CCC(=O)NC3=O)C4=O)CC2)CC1 (stereo not shown) [Example E177] | > 4 | 0.0157 | > 4 | > 4000 | 
9 | CCc1cc(Nc2ncc(Cl)c(Nc3ccccc3P(C)(C)=O)n2)c(OC)cc1N1CCC(N2CCN(CCCCCc3cccc4c3CN(C3CCC(=O)NC3=O)C4=O)CC2)CC1 (stereo not shown) [Example E39] | 0.0192 | 0.0042 | 0.25 | 928 | 
10 | CCc1cc(Nc2ncc(-n3ccnc3)c(Nc3ccccc3P(C)(C)=O)n2)c(OC)cc1N1CCC(N2CCN(CCOc3cccc4c3CN(C3CCC(=O)NC3=O)C4=O)CC2)CC1 (stereo not shown) [Example E170] | > 4 | 0.0035 | > 4 | > 4000 | 
11 | CCc1cc(Nc2ncc(Cl)c(Nc3ccccc3P(C)(C)=O)n2)c(OC)cc1N1CCC(N2CCN(CCCCOc3cc4c(cc3F)C(=O)N(C3CCC(=O)NC3=O)C4)CC2)CC1 (stereo not shown) [Example E92] | 0.0726 | 0.0127 | 0.692 | 1170 | 
12 | CCc1cc(Nc2ncc(Cl)c(Nc3ccccc3P(C)(C)=O)n2)c(OC)cc1N1CCC(N2CCN([C@H]3C[C@@H](Oc4cccc5c4CN(C4CCC(=O)NC4=O)C5=O)C3)CC2)CC1 (stereo partly shown) [Example E159] | 0.0219 | 0.0014 | 0.646 | 1850 | 
13 | COc1cc2c(cc1Nc1ncc(Cl)c(Nc3ccccc3P(C)(C)=O)n1)CCN(C1CCN(C(=O)COc3cccc4c3CN(C3CCC(=O)NC3=O)C4=O)CC1)C2 (stereo not shown) [Example E100] | 1.13 | 0.515 | 1.23 | > 4000 | 
14 | CCc1cc(Nc2nc(Nc3ccccc3P(C)(C)=O)c3cc[nH]c3n2)c(C(F)(F)F)cc1N1CCC(N2CCN(CCCCOc3cccc4c3CN(C3CCC(=O)NC3=O)C4=O)CC2)CC1 (stereo not shown) [Example E154] | 3.43 | 0.446 | > 4 | > 4000 | 
15 | CCc1cc(Nc2ncc(Cl)c(Nc3ccccc3P(C)(C)=O)n2)c(OC)cc1N1CCC(N2CCN(CCN(C)c3ccc4c(c3)CN(C3CCC(=O)NC3=O)C4=O)CC2)CC1 (stereo not shown) [Example E223] | 0.0694 | 0.0115 | > 4 |  | > 4000
16 | CCc1cc(Nc2ncc(Cl)c(Nc3ccccc3P(C)(C)=O)n2)c(OC)cc1N1CCC(N2CCN(CCCc3cccc4c3CN(C3CCC(=O)NC3=O)C4=O)C(=O)C2)CC1 (stereo not shown) [Example E107] | 0.158 | 0.0121 | > 4 | 1340 | 
17 | CCc1cc(Nc2ncc(Cl)c(Nc3ccccc3P(C)(C)=O)n2)c(OC)cc1N1CCC(N2CCC3(CC(Oc4cccc5c4CN(C4CCC(=O)NC4=O)C5=O)C3)C2)CC1 (stereo not shown) [Example E83] | 0.018 | 0.0012 | 1.45 | 1470 | 
18 | CCc1cc(Nc2ncc(-c3cnn(C)c3)c(Nc3ccccc3P(C)(C)=O)n2)c(OC)cc1N1CCC(N2CCN(CCOc3cc(F)cc4c3CN(C3CCC(=O)NC3=O)C4=O)CC2)CC1 (stereo not shown) [Example E194] | > 4 | 0.0005 | 0.535 | 1360 | 
19 | CCc1cc(Nc2ncc(-n3cc(C)cn3)c(Nc3ccccc3P(C)(C)=O)n2)c(OC)cc1N1CCC(N2CCN(CCOc3ccc4c(c3)CN(C3CCC(=O)NC3=O)C4=O)CC2)CC1 (stereo not shown) [Example E68] | > 4 | 0.0186 | > 4 | > 4000 | 

Further lines, with some results ahead:

Row | IC50 [1] [µM] | IC50 [2] [µM] | IC50 [3] [µM] | IC50 [4, 5] [nM] | SMILES | IC50 ([4]; A-431, 72 h, read-out: A431 IC50 (nM)) [nM]
20 | 2.06 | 0.0105 | 1.49 | 1970 | CCc1cc(Nc2ncc(C(=O)OC(C)C)c(Nc3ccccc3P(C)(C)=O)n2)c(OC)cc1N1CCC(N2CCN(CCCCOc3cccc4c3CN(C3CCC(=O)NC3=O)C4=O)CC2)CC1 (stereo not shown) [Example E105] | 
21 | 0.506 | 0.0791 | > 4 | 1110 | CCc1cc(Nc2ncc(Cl)c(Nc3ccccc3P(C)(C)=O)n2)c(OC)cc1N1CCC(N2CCN(CCC#Cc3ccc4c(c3)c(N3CCC(=O)NC3=O)nn4C)CC2)CC1 [Example E145] | 
22 | 0.0444 | 0.0082 | ≥ 1.06 | 2240 | CCc1cc(Nc2ncc(Cl)c(Nc3ccccc3P(C)(C)=O)n2)c(OC)nc1N1CCC(N2CCN(CCC#Cc3cccc4c3CN(C3CCC(=O)NC3=O)C4=O)CC2)CC1 (stereo not shown) [Example E41] | 
23 | > 4 | 0.0063 | > 4 | > 4000 | CCc1cc(Nc2ncc(-n3cncn3)c(Nc3ccccc3P(C)(C)=O)n2)c(OC)cc1N1CCC(N2CCN(CCOc3cccc4c3CN(C3CCC(=O)NC3=O)C4=O)CC2)CC1 (stereo not shown) [Example E171] | 
24 | 0.0592 |  | 3.3 | > 4000 | CCc1cc(Nc2ncc(Cl)c(Nc3ccccc3P(C)(C)=O)n2)c(OC)cc1N1CCC(N2Cc3cc(Oc4cccc5c4CN(C4CCC(=O)NC4=O)C5=O)ccc3C2=O)CC1 (stereo not shown) [Example E211] | 
25 | 0.0503 | 0.0195 | 0.815 | 1460 | CCc1cc(Nc2ncc(Cl)c(Nc3ccccc3P(C)(C)=O)n2)c(OC)cc1N1CCC(N2CCC3(CC(Oc4ccc5c(c4)CN(C4CCC(=O)NC4=O)C5=O)C3)C2)CC1 (stereo not shown) [Example E187] | 
26 | > 4 | 0.0438 | > 4 | > 4000 | CCc1cc(Nc2ncc(-c3cc(C)n[nH]3)c(Nc3ccccc3P(C)(C)=O)n2)c(OC)cc1N1CCC(N2CCN(CCOc3ccc4c(c3)CN(C3CCC(=O)NC3=O)C4=O)CC2)CC1 (stereo not shown) [Example E192] | 
27 | 0.0179 | 0.0066 | > 4 | 3490 | CCCc1cc(Nc2ncc(Cl)c(Nc3ccccc3P(C)(C)=O)n2)c(OC)cc1N1CCC(N2CCN(CCC#Cc3cccc4c3CN(C3CCC(=O)NC3=O)C4=O)CC2)CC1 (stereo not shown) [Example E44] | 
28 | 0.0438 | 0.0091 | 2.27 | > 4000 | CCc1cc(Nc2ncc(Cl)c(Nc3ccccc3P(C)(C)=O)n2)c(OC)cc1N1CCC2(CCN(C(=O)COc3cccc4c3CN(C3CCC(=O)NC3=O)C4=O)CC2)CC1 (stereo not shown) [Example E104] | 
29 | > 4 | 0.0034 | 0.616 | 1460 | CCc1cc(Nc2ncc(-n3cnc(C)c3)c(Nc3ccccc3P(C)(C)=O)n2)c(OC)cc1N1CCC(N2CCN(CCOc3ccc4c(c3)CN(C3CCC(=O)NC3=O)C4=O)CC2)CC1 (stereo not shown) [Example E214] | 
30 | 0.226 | 0.0168 | > 4 | 1370 | CCc1cc(Nc2ncc(Cl)c(Nc3ccccc3P(C)(C)=O)n2)c(OC)cc1N1CCC(N2CCN(CCNc3cccc4c3C(=O)N(C3CCC(=O)NC3=O)C4=O)CC2)CC1 (stereo not shown) [Example E106] | 
31 | 0.0369 | 0.0095 | 0.461 | > 4000 | CCc1cc(Nc2ncc(Cl)c(Nc3ccccc3P(C)(C)=O)n2)c(OC)cc1N1CCC2(CCN(CCCCOc3cccc4c3CN(C3CCC(=O)NC3=O)C4=O)CC2)CC1 (stereo not shown) [Example E47] | 
32 | 0.0169 | 0.0025 | 1.26 | 1480 | CCc1cc(Nc2ncc(Cl)c(Nc3ccccc3P(C)(C)=O)n2)c(OC)cc1N1CCC(N2CCc3ccc(Oc4cccc5c4CN(C4CCC(=O)NC4=O)C5=O)cc3CC2)CC1 (stereo not shown) [Example E34] | 
